We go through 20 molecules from ChEMBL document CHEMBL1141388, “2-Cyano-pyrimidines: a new chemotype for inhibitors of the cysteine protease cathepsin K” (J Med Chem, 2007).

By pIC50 is commonly meant the negative decadic logarithm of the IC50, by convention in mol/L. The term half-life denotes how long it takes for the measured level to halve.

pIC50: −log10 of the molar value. A value given as a limit tells only on which side of the number the result lay.

One data set concerns the target Procathepsin L (Homo sapiens, UniProt P07711). In words: Inhibition of human recombinant cathepsin L.
The target of the next data set is Cathepsin S (Homo sapiens, UniProt P25774). In words: Inhibition of human recombinant cathepsin S.
Chain of Cathepsin S (P25774 whole entry): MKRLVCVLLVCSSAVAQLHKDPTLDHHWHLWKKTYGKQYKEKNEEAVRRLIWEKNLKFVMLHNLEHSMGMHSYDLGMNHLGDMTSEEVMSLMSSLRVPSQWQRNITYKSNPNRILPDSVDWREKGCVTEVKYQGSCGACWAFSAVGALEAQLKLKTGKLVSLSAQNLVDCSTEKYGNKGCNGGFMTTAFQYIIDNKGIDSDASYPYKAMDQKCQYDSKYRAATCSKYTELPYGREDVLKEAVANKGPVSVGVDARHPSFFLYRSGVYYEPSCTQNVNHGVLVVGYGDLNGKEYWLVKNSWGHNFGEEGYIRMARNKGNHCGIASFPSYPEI
The next data set has as its target T1, Cathepsin K (Homo sapiens, UniProt P43235).
T1 sequence (P43235 whole entry): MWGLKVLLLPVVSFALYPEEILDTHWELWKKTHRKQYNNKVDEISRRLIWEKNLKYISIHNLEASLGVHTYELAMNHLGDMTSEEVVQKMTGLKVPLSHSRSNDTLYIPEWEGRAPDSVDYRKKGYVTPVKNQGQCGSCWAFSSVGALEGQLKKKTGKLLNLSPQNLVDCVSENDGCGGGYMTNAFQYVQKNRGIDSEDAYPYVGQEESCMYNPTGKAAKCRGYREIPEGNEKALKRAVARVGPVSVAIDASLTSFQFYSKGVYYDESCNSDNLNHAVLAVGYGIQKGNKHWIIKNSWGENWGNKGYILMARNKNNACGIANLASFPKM
In words: Inhibition of human recombinant cathepsin K.

The nature of data set [1]: Clearance in rat at 4 uM/kg, iv and 10 uM/kg, po. The following applies: in vivo. The data set is classed as ADME, organism-based.
A short description of data set [2]: Half life in rat at 4 uM/kg, iv and 10 uM/kg, po. The format is ADME, organism-based. The settings on record: in vivo.

Chain of Procathepsin L (P07711 whole entry): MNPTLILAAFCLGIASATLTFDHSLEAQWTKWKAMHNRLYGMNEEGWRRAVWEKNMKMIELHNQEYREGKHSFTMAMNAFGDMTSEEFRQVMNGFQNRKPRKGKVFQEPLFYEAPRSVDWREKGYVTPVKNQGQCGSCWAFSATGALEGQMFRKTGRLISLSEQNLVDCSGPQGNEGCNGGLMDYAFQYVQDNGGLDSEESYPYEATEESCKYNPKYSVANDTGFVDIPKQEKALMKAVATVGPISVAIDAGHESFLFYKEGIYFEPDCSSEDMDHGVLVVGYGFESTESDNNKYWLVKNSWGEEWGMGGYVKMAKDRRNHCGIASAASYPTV

As for `N#Cc1ncc(C(=O)NCCc2ccc(N3CCCC3)cc2)c(NC2CCCCC2)n1`, the pIC50 at Procathepsin L is 5.29; on Cathepsin S it was 5.64; at Cathepsin K, 6.12.

Regarding `CC(C)(C)CNc1nc(C#N)ncc1C(=O)NCCc1ccc(OCCn2ccnc2)cc1`, the pIC50 on Procathepsin L was 6.28; at Cathepsin S, 6.05; at Cathepsin K it was 8.52. In addition, the clearance in data set [1] is 462 mL/min/kg. This molecule also returned a half-life in data set [2] of 48 min.

As to `COc1ccc(CCNC(=O)c2cnc(C#N)nc2NC2CCCCC2)cc1`, the pIC50 was 6.77 at Procathepsin L, 6.15 on Cathepsin S and 7.66 at Cathepsin K.

In the case of `N#Cc1cccc(NC2CCCCC2)n1`, on Cathepsin K, the pIC50 was 6.00.

For the molecule `N#Cc1cncc(NC2CCCCC2)n1`, at Cathepsin K, the pIC50 was less than 6.00.

`N#Cc1cccc(NC2CCCCC2)c1`: the pIC50 at Cathepsin K is less than 6.00.

With `CN1CCN(c2ccc(CCNC(=O)c3cnc(C#N)nc3NC3CCCCC3)cc2)CC1`, the results for the pIC50 at Procathepsin L, on Cathepsin S and on Cathepsin K were 6.35, 6.32 and 7.33, respectively.

Consider `COc1ccc(CCNC(=O)c2cnc(C#N)nc2NCC(C)(C)C)cc1`, for which the pIC50 on Procathepsin L was 6.47; at Cathepsin S, 5.80; at Cathepsin K it was greater than 8.52.

On to `CN1CCN(c2ccc(CCNC(=O)c3cnc(C#N)nc3NCC(C)(C)C)cc2)CC1`, for which the pIC50 at Procathepsin L was 5.41; at Cathepsin S it was 5.51; at Cathepsin K, 7.60.

Consider `N#Cc1nccc(NC2CCCCC2)n1`, for which the pIC50 at Cathepsin K was 6.77.

On to `COc1cccc(CCNC(=O)c2cnc(C#N)nc2NCC(C)(C)C)c1`, for which the pIC50 at Procathepsin L is 5.92; at Cathepsin S, 6.05; on Cathepsin K, greater than 8.52.

Consider `N#Cc1ccnc(NC2CCCCC2)n1`, for which the pIC50 at Cathepsin K is 6.92.

In the case of `CC(C)(C)CNc1nc(C#N)ncc1C(=O)NCCc1ccc(N2CCCC2)cc1`, the pIC50 at Procathepsin L is less than 5.00; at Cathepsin S, less than 5.00; on Cathepsin K it was 6.52.

`CN1CCN(Cc2ccc(CCNC(=O)c3cnc(C#N)nc3NCC(C)(C)C)cc2)CC1`: the values for the pIC50 on Procathepsin L, at Cathepsin S and at Cathepsin K were 6.48, 5.60 and 7.96, respectively.

Turning to `CC(C)(C)CNc1nc(C#N)ncc1C(=O)NCCc1cccc(OCCn2ccnc2)c1`, the pIC50 on Procathepsin L is 6.17; at Cathepsin S, 6.29; on Cathepsin K, 8.52.

Consider `COc1cccc(CCNC(=O)c2cnc(C#N)nc2NC2CCCCC2)c1`, for which the pIC50 at Procathepsin L is 6.51; on Cathepsin S it was 6.64; on Cathepsin K, 8.05.

As for `N#Cc1ncc(C(=O)NCCc2ccccc2)c(NC2CCCCC2)n1`, the results for the pIC50 on Procathepsin L, at Cathepsin S and at Cathepsin K were 5.96, 6.89 and 8.00, respectively.

In the case of `CN1CCN(c2cccc(CCNC(=O)c3cnc(C#N)nc3NCC(C)(C)C)c2)CC1`, the values for the pIC50 on Procathepsin L, on Cathepsin S and at Cathepsin K were 6.09, 5.74 and 7.96, respectively.

In the case of `COc1ccc(CCNC(=O)c2cnc(C#N)nc2NCC(C)(C)C)cc1OCCn1ccnc1`, the pIC50 was 6.24 at Procathepsin L, 5.59 on Cathepsin S and 7.51 at Cathepsin K.

For the molecule `CN1CCC(Oc2ccc(CCNC(=O)c3cnc(C#N)nc3NCC(C)(C)C)cc2)CC1`, the pIC50 is 5.77 at Procathepsin L, 5.00 at Cathepsin S and 7.89 at Cathepsin K.
